Molecular target: T1, tyrosinase from mushroom
T1 construct: gene PPO3; commercial native mushroom enzyme (Fischer Scientific)
Test: tyrosinase inhibition assay
Assay type: biochemical
Conditions: positive control; anomer of arbutin not stated
From the text: tyrosinase inhibition assay on tyrosinase from mushroom

Tyrosinase: 0.17 ± 0.01 mg/mL
SMILES: OC[C@H]1O[C@@H](Oc2ccc(O)cc2)[C@H](O)[C@@H](O)[C@@H]1O [Arbutin]

Reference: PMC10574883, “Harnessing the Bioactive Potential of Limonium spathulatum (Desf.) Kuntze: Insights into Enzyme Inhibition and Phytochemical Profile” (Plants, 2023)
